The test system of experiment [1] is interleukin 8. In words: LPS-induced interleukin 8 release in human PBMC. The settings on record: 10 μM compound with LPS 25 μg/ml, 24 h. The format is cell-based. The procedure: (§1) Approximately 450 ml of blood was obtained from healthy human volunteers and diluted with RPMI 1640 culture medium. A Ficoll gradient (MSL; Eurobio, les Ulis, France) was used to isolate human peripheral blood mononuclear leukocytes (PBMC). The volume ratio of blood, RPMI 1640 culture medium, and MSL was 2:4:1. PBMC were obtained by centrifuging the diluted blood at 500 g at 15° C. for 20 min and washed once with RPMI 1640. The cell pellets were resuspended at a final concentration of 6×10^6 cells/ml of the same medium supplemented with 5% heat-inactivated normal human serum (a pool of sera from healthy volunteers) and antibiotics (penicillin 100 UI/ml and streptomycin 100 μg/ml). Aliquots of 500 μl of the cell suspension were dispensed into each well of a 24-well plate and incubated at 37° C. in a 5% CO2-95% air incubator in a humidified atmosphere. To wells were added lipopolysaccharide (LPS, 25 μg/ml) from smooth E. Coli 0111:B4 alone or LPS and Compound 1 (10 μM) together. After 24 h, the supernatants were collected, centrifuged at 400 g for 10 min at 15° C. and stored at −20° C. Cytokines were assayed using commercial kits manufactured by R & D Systems (Abingdon, UK). The concentrations of the cytokines were determined using an internal standard according to the manufacturer's instructions.

Experiment [2] relates to interleukin-4. In words: LPS-induced interleukin-4 release in human PBMC. Conditions: 10 μM compound with LPS 25 μg/ml, 24 h. It is filed as cell-based. The protocol:
as §1

The test system of experiment [3] is interferon-γ. In words: LPS-induced interferon-γ release in human PBMC. The format is cell-based. Conditions: 10 μM compound with LPS 25 μg/ml, 24 h. The protocol: as §1
Experiment [4] deals with interleukin-2. In words: LPS-induced interleukin-2 release in human PBMC. It is filed as cell-based. Conditions: 10 μM compound with LPS 25 μg/ml, 24 h. The protocol: as §1
Experiment [5] concerns TNF-α. Kind of experiment: LPS-induced TNF-α release in human PBMC. The format is cell-based. Conditions: 10 μM compound with LPS 25 μg/ml, 24 h. The protocol: as §1
The subject of experiment [6] is interleukin-10. Kind of experiment: LPS-induced interleukin-10 release in human PBMC. The settings on record: 10 μM compound with LPS 25 μg/ml, 24 h. The format is cell-based. The procedure:
as §1

The test system of experiment [7] is NF-κB. In words: NF-κB DNA binding activity in tissue nuclear extracts of LPS-treated mice (EMSA, ELISA-based Trans-AM p65 kit). It is filed as in vivo. Conditions: ICR mice, LPS 60 mg/kg i.p., compound 10 mg/kg orally in 0.5% carboxymethyl cellulose; lung, spleen, kidney extracts. The protocol:
Mice (25-30 g, ICR strain) were injected intraperitoneally with LPS (60 mg/kg). Most of them were orally treated with Compound 1 (10 mg/kg) in 0.5% carboxymethyl cellulose, and the rest (control mice) were orally treated with vehicle. The control mice died within 27 h after the LPS administration. The mice were euthanatized with intraperitoneal administration of pentobarbital at various time intervals after the LPS administration. Nuclear extracts of lung, spleen, and kidney tissues were prepared by a standard method. NF-κB DNA binding activity was assessed by an electrophoretic mobility shift assay according to a procedure described in Pan et al., J Biomed Sci. 2002, 9: 622-630. […] The sample was then charged to native 5% polyacrylamide gels and analyzed by autoradiography. […] NF-κB DNA binding activity was also assessed with ELISA-based Trans-AM NF-κB p65 transcription factor assay kits (Active Motif Europe, […], Belgium) according to the manufacturer's instructions. […] Specificity of NF-κB activation was determined by competition experiments using NF-κB wild-type and mutant consensus oligonucleotides that were provided with the kit.
(In general: In EMSA bound probe runs differently from free probe, usually more slowly.)

Experiment [8] has as its system interleukin 1β. Kind of experiment: LPS-induced interleukin 1β release in human PBMC. It is filed as cell-based. Conditions: 10 μM compound with LPS 25 μg/ml, 24 h. The procedure:
as §1

Data on one compound can be found in patent publication US7754751B2, “Preferential inhibition of release of pro-inflammatory cytokines” (Yung Shin Pharmaceutical Ind. Co., Ltd., priority 2004, dated 2010).

Each structure is given as a SMILES string.

With `OCc1ccc(-c2nn(Cc3ccccc3)c3ccccc23)o1` [Compound 1, 3-(5′-hydroxymethyl-2′-furyl)-1-benzyl-indazol], the inhibition (commonly how much of the control response was suppressed) at 10 µM is > 80% in experiment [1]; < 10% in experiment [2]; > 30% in experiment [3]; > 30% in experiment [4]; > 80% in experiment [5]; < 10% in experiment [6]. Further, the inhibition at 10 µM in experiment [8] is > 80%. For the same compound, in experiment [7], the “NF-κB/DNA complex level induced by LPS” value is given as “inhibited the increase of the NF-κB/DNA complex level induced by LPS”.
